Experimental data taken from ChEMBL document CHEMBL1156592, “4-(1H-indazol-5-yl)-6-phenylpyrimidin-2(1H)-one analogs as potent CDC7 inhibitors” (Bioorg Med Chem Lett, 2008).

Experiments:
[1] = molecular target: Cell division cycle 7-related protein kinase (Homo sapiens, UniProt O00311); experiment: Inhibition of CDC7-DBF4
A549 = experiment: Growth inhibition of human A549 cells; format: functional
[2] = Metabolic stability in mouse microsomes assessed as half life; format: ADME, Microsome

Chain of Cell division cycle 7-related protein kinase (O00311 whole entry): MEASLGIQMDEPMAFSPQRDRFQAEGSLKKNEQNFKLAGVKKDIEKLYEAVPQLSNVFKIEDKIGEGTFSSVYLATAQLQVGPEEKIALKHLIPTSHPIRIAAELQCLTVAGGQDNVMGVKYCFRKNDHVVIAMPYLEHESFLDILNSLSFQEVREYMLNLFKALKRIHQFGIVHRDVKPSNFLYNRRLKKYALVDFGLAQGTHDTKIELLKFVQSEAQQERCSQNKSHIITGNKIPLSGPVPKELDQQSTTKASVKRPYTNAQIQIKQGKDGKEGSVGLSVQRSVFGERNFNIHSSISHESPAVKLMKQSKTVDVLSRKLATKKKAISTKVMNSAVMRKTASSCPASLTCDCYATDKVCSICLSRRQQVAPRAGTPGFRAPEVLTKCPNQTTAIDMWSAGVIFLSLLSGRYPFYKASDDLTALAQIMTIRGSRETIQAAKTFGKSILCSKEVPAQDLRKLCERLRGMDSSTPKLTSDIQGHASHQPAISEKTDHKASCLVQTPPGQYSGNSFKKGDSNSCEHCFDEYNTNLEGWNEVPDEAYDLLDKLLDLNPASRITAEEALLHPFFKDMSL

IC50 [1] [nM] | GI50 (A549) [nM] | half-life [2] [min] | SMILES
> 13000 | – | – | O=c1nc(-c2ccncc2)cc(-c2cccc(Cl)c2)[nH]1
1000 | – | – | COc1ccc(-c2cc(-c3ccnc(N)c3)nc(=O)[nH]2)c(OC)c1
40 | – | – | O=c1nc(-c2ccc3[nH]ncc3c2)cc(-c2ccc(N3CCNCC3)cc2)[nH]1
110 | – | – | O=c1nc(-c2ccc3[nH]ncc3c2)cc(-c2cccc(C(F)(F)F)c2)[nH]1
6 | – | – | O=c1nc(-c2ccc3[nH]ncc3c2)cc(-c2cccc(OCc3ccccc3)c2)[nH]1
– | > 10000 | – | Cc1cc(-c2cc(-c3ccccc3)[nH]c(=O)n2)ccc1O
5 | 600 | – | O=c1nc(-c2ccc3[nH]ncc3c2)cc(-c2cccc(Cl)c2)[nH]1
150 | – | – | O=c1nc(-c2ccc3[nH]ncc3c2)cc(-c2cccc(F)c2)[nH]1
100 | – | – | CCc1ccc(-c2cc(-c3ccc4n[nH]cc4c3)nc(=O)[nH]2)cc1
30 | > 10000 | 4 | O=c1nc(-c2ccc(O)cc2)cc(-c2ccccc2)[nH]1
7300 | – | – | COc1ccc(-c2cc(-c3ccnc(N(C)C)c3)nc(=O)[nH]2)c(OC)c1
10 | – | – | O=c1nc(-c2ccc3[nH]ncc3c2)cc(-c2ccccc2F)[nH]1
350 | – | – | O=c1nc(-c2ccc3[nH]ncc3c2)cc(-c2ccc(OCc3ccccc3)cc2)[nH]1
